From ChEMBL document CHEMBL1201862, “PubChem BioAssay data set” (2004)
Several values for one entry are separate records, joined by “and”; a condition that tells them apart may be missing. Equal entries are not always repeated.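 Compound exposure: 48 hours, 5 concentrations, 96-well plates. The concentration for 50% growth inhibition is given as GI50.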 Activity calls are given as the source filed them. No stated cut-off is given here; in the data, active = GI50 up to about 1.1 µM and inactive = higher.

Assays:
Experiment in all cases: growth of human tumour cells (NCI), 48 h
HOP-18 = system: HOP-18
KM-20L2 = system: KM-20L2
DLD-1 = system: DLD-1
SNB-78 = system: SNB-78
LXFL 529 = system: LXFL 529
XF498 = system: XF498
M19-MEL = system: M19-MEL
DMS-273 = system: DMS-273
RXF 631 = system: RXF 631

| Structure (SMILES) | GI50 (HOP-18) | GI50 (KM-20L2) | GI50 (DLD-1) | GI50 (SNB-78) | GI50 (LXFL 529) | GI50 (XF498) | GI50 (M19-MEL) | GI50 (DMS-273) | GI50 (RXF 631) |
| --- | --- | --- | --- | --- | --- | --- | --- | --- | --- |
| CC1=C2C(=O)O[C@@H](c3ccoc3)[C@]2(C)CCC1 [FRAXINELLONE] | > 100 µM (inactive) | > 100 µM (inactive) | > 100 µM (inactive) | > 100 µM (inactive) | > 100 µM (inactive) | > 100 µM (inactive) | > 100 µM (inactive) |  |  |
| C=CCc1cc(OC)c2c(c1)C(O)CC(c1ccccc1)O2 (stereo unspecified) | > 100 µM (inactive) | 78.3 µM (inactive) | > 100 µM (inactive) | > 100 µM (inactive) | > 100 µM (inactive) |  | > 100 µM (inactive) | > 100 µM (inactive) | > 100 µM (inactive) |
| Cc1cc(C)cc(NC(N)=S)c1 |  | > 100 µM (inactive) | > 100 µM (inactive) | > 100 µM (inactive) | > 100 µM (inactive) | 46.5 µM (inactive) | > 100 µM (inactive) | > 100 µM (inactive) | > 100 µM (inactive) |
| COc1ccc(N2C(=O)C3c4[nH]c5ccccc5c4C4CCCCCCC4C3C2=O)cc1 (stereo unspecified) | 1.57 µM (inactive) | 28.8 µM (inactive) | 11.2 µM (inactive) | 27.8 µM (inactive) | 6.08 µM (inactive) | 10.4 µM (inactive) | 23.3 µM (inactive) | 5.35 µM (inactive) |  |
| O=S(=O)(O)c1cc(O)c2c(O)c(/N=N/c3ccc(/C=C/c4ccc(/N=N/c5c(S(=O)(=O)O)cc6cc(S(=O)(=O)O)cc(O)c6c5O)cc4S(=O)(=O)O)c(S(=O)(=O)O)c3)c(S(=O)(=O)O)cc2c1 | > 100 µM (inactive) | > 100 µM (inactive) | > 100 µM (inactive) |  | > 100 µM (inactive) | > 100 µM (inactive) | > 100 µM (inactive) | > 100 µM (inactive) |  |
| CC12c3ccccc3C(OC=O)(c3ccccc31)C1(C)c3ccccc3C2(OC=O)c2ccccc21 | > 100 µM (inactive) | > 100 µM (inactive) | > 100 µM (inactive) | > 100 µM (inactive) | > 100 µM (inactive) |  | > 100 µM (inactive) | 75.7 µM (inactive) | > 100 µM (inactive) |
| CC(C)(O)[C@@H]1CC[C@@]2(C)CCC[C@H](O)[C@H]2C1 | > 100 µM (inactive) | > 100 µM (inactive) | > 100 µM (inactive) |  | > 100 µM (inactive) | > 100 µM (inactive) | > 100 µM (inactive) | > 100 µM (inactive) | > 100 µM (inactive) |
| O=C(O)C1Cc2[nH]cnc2CN1 (stereo unspecified) | > 100 µM (inactive) | > 100 µM (inactive) | > 100 µM (inactive) | > 100 µM (inactive) | > 100 µM (inactive) |  | > 100 µM (inactive) | > 100 µM (inactive) | > 100 µM (inactive) |
| c1ccc(C2Nc3ccccc3C3OCCCC23)cc1 (stereo unspecified) |  | 18.4 µM (inactive) | 18.9 µM (inactive) | 23.9 µM (inactive) | 7.78 µM (inactive) | 56.5 µM (inactive) | 42.6 µM (inactive) | 28.2 µM (inactive) | 35.7 µM (inactive) |
| COc1cc(CC(C)N)ccc1O (stereo unspecified) | > 100 µM (inactive) | > 100 µM (inactive) | > 100 µM (inactive) | > 100 µM (inactive) | > 100 µM (inactive) | > 100 µM (inactive) |  | > 100 µM (inactive) | > 100 µM (inactive) |
| O=S(=O)(c1ccccc1)C1(C2(S(=O)(=O)c3ccccc3)CCN=N2)CCN=N1 (stereo unspecified) |  |  | > 100 µM (inactive) |  | > 100 µM (inactive) | > 100 µM (inactive) | > 100 µM (inactive) | > 100 µM (inactive) |  |
| N=c1nc2n(cc1F)[C@@H]1O[C@H](CO)[C@@H](O)[C@@H]1O2 | 13.4 µM (inactive) | 2.99 µM (inactive) | 1.44 µM (inactive) | 62.2 µM (inactive) | > 26.5 µM (inactive) | > 100 µM (inactive) |  | 3.63 µM (inactive) |  |
| Cc1ccc(/C=N/NS(=O)(=O)c2ccccc2)c(C)c1 | > 100 µM (inactive) | > 100 µM (inactive) | > 100 µM (inactive) | > 100 µM (inactive) | > 100 µM (inactive) | > 100 µM (inactive) | > 100 µM (inactive) | > 100 µM (inactive) | > 100 µM (inactive) |
| CCOC(=O)C(Cc1ccc([N+](=O)[O-])cc1)NC(=O)CC1c2ccccc2-c2ccccc21 (stereo unspecified) | > 100 µM (inactive) | > 100 µM (inactive) | > 100 µM (inactive) | 23.8 µM (inactive) | > 100 µM (inactive) | 20.8 µM (inactive) | 18.9 µM (inactive) | 63.5 µM (inactive) |  |
| CCCCCCCCCCCCCCCC(=O)OCC1OC(OC)C(NC(=O)N(CCCl)N=O)C(O)C1O (stereo unspecified) | 32.4 µM (inactive) | 20.3 µM (inactive) | 14.7 µM (inactive) | 24.5 µM (inactive) | 16.3 µM (inactive) | 7.66 µM (inactive) | 22.5 µM (inactive) | 10.2 µM (inactive) |  |
| O=C(Cn1ccnc1[N+](=O)[O-])N(CCO)CCO | > 1250 µM (inactive) | > 1250 µM (inactive) | > 1250 µM (inactive) | > 1250 µM (inactive) |  | > 58.1 µM (inactive) | > 1250 µM (inactive) | > 1250 µM (inactive) |  |
| Cc1ccc(C(=O)OCC(C)C)cc1/N=N/N(C)C |  | 38.7 µM (inactive) | 45.5 µM (inactive) | 64.9 µM (inactive) | > 100 µM (inactive) |  | 44 µM (inactive) | 45.5 µM (inactive) |  |
| CC1CN(c2ccc(Cl)cc2)CC(C)(C)OC(=O)O1 (stereo unspecified) |  | > 100 µM (inactive) | > 100 µM (inactive) | > 100 µM (inactive) | > 100 µM (inactive) | > 100 µM (inactive) | > 100 µM (inactive) | > 100 µM (inactive) | > 100 µM (inactive) |
| CCOC(=O)CCC1(C(=O)OC)CCCC1=O (stereo unspecified) | 62.2 µM (inactive) | > 100 µM (inactive) | > 100 µM (inactive) | > 100 µM (inactive) | > 100 µM (inactive) | > 100 µM (inactive) | > 100 µM (inactive) | > 100 µM (inactive) |  |
| CCC(C)NC1=C(NC(C)=O)C(=O)c2ccccc2C1=O (stereo unspecified) | > 75 µM (inactive) | > 75 µM (inactive) | 27.4 µM (inactive) | > 75 µM (inactive) | 54.8 µM (inactive) | > 75 µM (inactive) | 48.3 µM (inactive) | 27.6 µM (inactive) |  |
| O=C(O)CCSC(=O)Nc1cccc(F)c1 |  | > 100 µM (inactive) | > 10 µM (inactive) | > 100 µM (inactive) | > 100 µM (inactive) |  |  | > 100 µM (inactive) |  |
| OC1c2ccccc2C2(O)C1C(c1ccccc1)C(c1ccccc1)C2(O)c1ccccc1 (stereo unspecified) | 14.9 µM (inactive) | 8.83 µM (inactive) |  |  | 9.82 µM (inactive) |  | 15.1 µM (inactive) | 7.48 µM (inactive) |  |
| CC(C)(c1ccccc1)c1ccc(Oc2ccc(C#N)c(C#N)c2)cc1 | > 10 µM (inactive) | > 10 µM (inactive) | > 10 µM (inactive) | > 10 µM (inactive) | 24.4 µM (inactive) | > 10 µM (inactive) | 79.1 µM (inactive) |  | > 10 µM (inactive) |
| NC(=O)/C=C/c1c[nH]c2nccnc12 | 0.228 µM (active) | 0.0723 µM (active) | 2.13 µM (inactive) |  | 0.103 µM (active) |  | 3.27 µM (inactive) | 3.52 µM (inactive) |  |
| O=C1C2C3CCC(C2C(=O)N1CO)C1C2C(=O)N(CO)C(=O)C2C31 (stereo unspecified) | 13.7 µM (inactive) | > 52.6 µM (inactive) | 45.4 µM (inactive) | > 100 µM (inactive) | 55.3 µM (inactive) | > 100 µM (inactive) | 1 µM (active) | 36.1 µM (inactive) |  |
| COC(=O)[C@]1(C)CCC[C@]2(C)C3CC4OOC3(C=C4C(C)C)CCC21 (stereo partly specified) |  | 17.9 µM (inactive) | 12.7 µM (inactive) | 16.5 µM (inactive) | 13.7 µM (inactive) |  |  | 18.5 µM (inactive) |  |
| COc1cc(C2c3cc4c(cc3[C@@H](Nc3ccc(F)cc3)C3COC(=O)[C@H]23)OCO4)cc(OC)c1O (stereo partly specified) | 10.6 µM (inactive) | 2.08 µM (inactive) | 3.79 µM (inactive) | 8.65 µM (inactive) | 6.67 µM (inactive) | 2.95 µM (inactive) | 4.21 µM (inactive) | 0.891 µM (active) |  |
| Cc1cn(Cc2ccccc2CCO)c(=S)[nH]c1=O | > 100 µM (inactive) | > 100 µM (inactive) |  |  | > 100 µM (inactive) | > 100 µM (inactive) | > 100 µM (inactive) | > 100 µM (inactive) | > 100 µM (inactive) |
| O=C1c2ccccc2-c2c3c(cc4ccnc1c24)OCO3 [LIRIODENINE] | 24.9 µM (inactive) | 7.14 µM (inactive) and 5.82 µM (inactive) | 4.49 µM (inactive) and 4.05 µM (inactive) |  | 5.89 µM (inactive) and 6.52 µM (inactive) | 5.75 µM (inactive) and 4.69 µM (inactive) | 5.86 µM (inactive) and 3.75 µM (inactive) | 3.44 µM (inactive) and 5.46 µM (inactive) |  |
